Results on 13 compounds are retold here after ChEMBL document CHEMBL1130830, “Broad spectrum matrix metalloproteinase inhibitors: an examination of succinamide hydroxamate inhibitors with P1 C alpha gem-disubstitution” (Bioorg Med Chem Lett, 1998).

The target of one test is Stromelysin-1 (Homo sapiens, UniProt P08254). The experiment in a line: Inhibition of Matrix metalloprotease-3 (MMP-3).
Test [1] deals with 72 kDa type IV collagenase (Homo sapiens, UniProt P08253). The test is described as follows: Inhibition of Matrix metalloprotease-2 (MMP-2).
Chain of 72 kDa type IV collagenase (P08253 whole entry): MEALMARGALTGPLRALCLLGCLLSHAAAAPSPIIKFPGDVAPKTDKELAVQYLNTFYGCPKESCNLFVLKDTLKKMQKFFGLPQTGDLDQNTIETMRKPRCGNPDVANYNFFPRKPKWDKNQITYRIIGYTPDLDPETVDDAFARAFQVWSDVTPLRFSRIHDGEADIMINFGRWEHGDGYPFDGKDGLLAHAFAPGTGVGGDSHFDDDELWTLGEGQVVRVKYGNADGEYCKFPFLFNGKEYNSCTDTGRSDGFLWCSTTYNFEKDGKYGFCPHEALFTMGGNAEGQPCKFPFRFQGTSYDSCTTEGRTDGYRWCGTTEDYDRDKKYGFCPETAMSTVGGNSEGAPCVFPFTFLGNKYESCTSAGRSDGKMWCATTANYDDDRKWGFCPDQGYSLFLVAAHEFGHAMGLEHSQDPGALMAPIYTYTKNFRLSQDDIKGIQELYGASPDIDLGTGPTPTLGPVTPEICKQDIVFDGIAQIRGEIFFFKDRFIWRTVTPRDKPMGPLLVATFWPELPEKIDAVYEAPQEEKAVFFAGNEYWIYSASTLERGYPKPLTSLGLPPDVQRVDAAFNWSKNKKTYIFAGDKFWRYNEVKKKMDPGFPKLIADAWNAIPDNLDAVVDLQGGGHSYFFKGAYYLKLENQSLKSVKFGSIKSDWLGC
The target in another test is T1, Interstitial collagenase (Homo sapiens, UniProt P03956).
T1 sequence (P03956 whole entry): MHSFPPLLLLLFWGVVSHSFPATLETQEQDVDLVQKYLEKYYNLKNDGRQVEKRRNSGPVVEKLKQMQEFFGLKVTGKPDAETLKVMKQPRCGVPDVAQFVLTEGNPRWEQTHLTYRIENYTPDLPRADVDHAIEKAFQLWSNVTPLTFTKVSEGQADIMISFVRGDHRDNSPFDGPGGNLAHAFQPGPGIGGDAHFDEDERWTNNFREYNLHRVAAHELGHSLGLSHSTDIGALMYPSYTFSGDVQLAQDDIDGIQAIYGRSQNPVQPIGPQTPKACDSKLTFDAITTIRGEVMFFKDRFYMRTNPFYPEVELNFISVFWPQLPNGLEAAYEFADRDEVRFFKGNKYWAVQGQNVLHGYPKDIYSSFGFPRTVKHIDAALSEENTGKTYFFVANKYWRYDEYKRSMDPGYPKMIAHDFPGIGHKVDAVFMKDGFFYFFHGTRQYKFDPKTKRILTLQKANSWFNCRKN
The test is described as follows: Inhibition of matrix metalloprotease-1 (MMP-1).

Chain of Stromelysin-1 (P08254 whole entry): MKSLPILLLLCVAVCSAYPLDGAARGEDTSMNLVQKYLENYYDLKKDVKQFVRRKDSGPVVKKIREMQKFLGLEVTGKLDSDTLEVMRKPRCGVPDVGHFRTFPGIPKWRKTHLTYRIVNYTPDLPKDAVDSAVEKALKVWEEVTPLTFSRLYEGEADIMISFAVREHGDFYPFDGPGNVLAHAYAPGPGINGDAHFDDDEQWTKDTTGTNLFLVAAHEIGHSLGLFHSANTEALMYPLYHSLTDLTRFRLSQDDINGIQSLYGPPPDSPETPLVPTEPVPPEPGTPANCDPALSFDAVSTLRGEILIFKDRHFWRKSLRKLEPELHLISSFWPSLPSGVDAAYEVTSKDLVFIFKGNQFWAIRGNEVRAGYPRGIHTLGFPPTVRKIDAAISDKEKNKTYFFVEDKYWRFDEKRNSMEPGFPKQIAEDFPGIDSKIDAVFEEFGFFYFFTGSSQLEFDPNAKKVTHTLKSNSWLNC

As to `C=CCC(CC=C)(C(=O)NO)[C@@H](CC(C)C)C(=O)N[C@@H](Cc1ccccc1)C(=O)NC`, the IC50 against Stromelysin-1 was 2.6 µM; in test [1], 0.11 µM; at Interstitial collagenase it was 0.55 µM.
For `CNC(=O)[C@H](Cc1ccccc1)NC(=O)[C@H](CC(C)C)C1(C(=O)NO)CCCC1` the same measures were 0.17 µM, 0.05 µM and 0.037 µM.
The like results for `C=CC[C@](C)(C(=O)NO)[C@@H](CC(C)C)C(=O)N[C@@H](CC1CCCCC1)C(=O)NCCc1ccccc1` were, in that order, 0.16 µM, 0.064 µM and 0.11 µM.
The like results for `C=CC[C@](C)(C(=O)NO)[C@@H](CC(C)C)C(=O)N[C@@H](CC1CCCCC1)C(=O)NCCc1ccc(S(N)(=O)=O)cc1` were, in that order, 0.015 µM, 0.023 µM and 0.0069 µM.
Regarding `C=CC[C@@](C)(C(=O)NO)[C@@H](CC(C)C)C(=O)N[C@@H](Cc1ccccc1)C(=O)NC`, the IC50 is 0.42 µM at Stromelysin-1, 0.066 µM in test [1] and 0.052 µM against Interstitial collagenase.
As for `C=CC[C@](C)(C(=O)NO)[C@@H](CC(C)C)C(=O)N[C@H](C(=O)Nc1ccccc1)C(C)(C)C`, the results for the IC50 (at Stromelysin-1; in test [1]; on Interstitial collagenase) were 0.095 µM, 0.0062 µM and 0.05 µM, respectively.
For the compound `CNC(=O)[C@H](Cc1ccccc1)NC(=O)[C@H](CC(C)C)[C@H](C)C(=O)NO`, the IC50 against Stromelysin-1 stood at 0.05 µM; in test [1], 0.0013 µM; against Interstitial collagenase, 0.0013 µM.
As to `CNC(=O)[C@H](Cc1ccccc1)NC(=O)[C@H](CC(C)C)C(C)(C)C(=O)NO`, the 50% inhibitory concentration (IC50) on Stromelysin-1 came to 0.17 µM; in test [1] it was 0.0023 µM; on Interstitial collagenase it was 0.0094 µM.
For `C=CC[C@](C)(C(=O)NO)[C@@H](CC(C)C)C(=O)N[C@H](C(=O)NC)C(C)(C)C` the same measures were 0.48 µM, 0.0025 µM and 0.0027 µM.
For `C=CC[C@](C)(C(=O)NO)[C@@H](CC(C)C)C(=O)N[C@@H](Cc1ccccc1)C(=O)Nc1ccccc1` the same measures were 0.091 µM, 0.052 µM and 0.12 µM.
For `C=CC[C@](C)(C(=O)NO)[C@@H](CC(C)C)C(=O)N[C@@H](Cc1ccccc1)C(=O)NC` the same measures were 0.025 µM, 0.0042 µM and 0.0031 µM.
Take `C=CC[C@@H](C(=O)NO)[C@@H](CC(C)C)C(=O)N[C@@H](Cc1ccccc1)C(=O)NC`: the IC50 against Stromelysin-1 was 0.059 µM; in test [1] it was 0.035 µM; against Interstitial collagenase, 0.035 µM.
With `C=CCC(C(=O)NO)C(CC(C)C)C(=O)N[C@@H](Cc1ccccc1)C(=O)NC` (single isomer, unassigned), the 50% inhibitory concentration (IC50) against Stromelysin-1 was found to be 0.012 µM; in test [1], 0.0018 µM; on Interstitial collagenase, 0.0022 µM.
